# Like-named read-outs stand apart in the source and are kept apart here.
# Experiments:
# [1] = tested on: honey bees; assay type: in vivo, Apis mellifera
# Procedure: An LC50 for paraquat in 1:1 sucrose diet was determined for 72 h of oral exposure by constructing a concentration–response curve. The ability of KATP modulators to rescue or synergize paraquat-induced mortality was then assessed by incorporating modulators into 1:1 sucrose containing paraquat. Mortality assessments and sampling of surviving bees was conducted at 24-h intervals. Quantification of ROS among survivors was performed using the Total Antioxidant Capacity Assay kit (Cayman Chemical).
# [2] = tested on: phenoloxidase (POX); assay: Phenoloxidase activity of treated bees (individual immunity); assay type: in vivo, Apis mellifera
# Procedure: (§1) Individual bees were sampled at 24-h intervals and frozen in liquid nitrogen. Social immunity was measured by quantifying the metabolism of glucose to hydrogen peroxide by glucose oxidase. Briefly, heads were homogenized in ice-cold extraction buffer then centrifuged at 15,000×g. Aliquots of supernatant were incubated with horse radish peroxidase and glucose at 37 °C, then combined with the chromogen o-dianisidine dihydrochloride. Absorbance was read at 430 nm over a period of 90 min and compared to sample blanks, lacking chromogen. To measure individual immunity, phenoloxidase activity was measured as described. Abdomens were homogenized as and centrifuged as previously described. Supernatant was incubated at 37 °C, then combined with the chromogen L-Dopa. Absorbance was measured at 490 nm for 20 min, then compared to sample blanks lacking chromogen. To compare both glucose oxidase and phenol oxidase activity between samples, Vmax was calculated using the Michaelis–Menten equation.
# [3] = tested on: bees from Varroa destructor infested colonies; assay type: in vivo, Apis mellifera
# Procedure: Age-matched bees from colonies with higher (> 10 mites/100 bees) and lower (< 1 mite/100 bees) were placed in hoarding cages and allowed to feed ad libitum on sucrose solution alone or containing paraquat. Survivorship was assessed at 24-h intervals, and LT50 times were calculated by nonlinear regression using a Hill equation.
# [4] = tested on: glucose oxidase (GOX); assay: Glucose oxidase activity of treated bees (social immunity); assay type: in vivo, Apis mellifera
# Procedure: as §1
# [5] = tested on: honey bees; assay type: in vivo, Apis mellifera; remark: listed apart in the source
# Procedure: (§2) The ability of KATP modulators to rescue or synergize paraquat-induced mortality was then assessed by incorporating modulators into 1:1 sucrose containing paraquat. […] Quantification of ROS among survivors was performed using the Total Antioxidant Capacity Assay kit (Cayman Chemical).
# [6] = tested on: total antioxidant concentrations in bees; assay: Total antioxidant capacity of bees (quantification of ROS); assay type: in vivo, Apis mellifera; conditions: alone
# Procedure: as §2
# [7] = tested on: bees inoculated with Israeli acute paralysis virus (IAPV); assay: IAPV-mediated mortality of bees fed KATP modulator or paraquat; assay type: in vivo, Apis mellifera; design: Survivorship after IAPV inoculation compared to IAPV alone: dose or concentration left out as unconfirmed
# Procedure: IAPV was obtained following our previously described methods. Approximately 30 adult bees from a heavily infected IAPV infected colony were froze in liquid nitrogen, ground to a fine powder, and homogenized in a phosphate extraction buffer. The supernatant was collected after centrifuging the emulsion and filtered through a 0.2 micron filter. The filtrate was subsequently centrifuged at 30,000 rpm to pellet the picornavirus particles and was followed by resusopension in PBS and centrifuged at 52,000 rpm overnight. The fractions containing virus particles were dialyzed against cold PBS overnight. Verification that IAPV was the only virus present in the inoculum was performed via qRT-PCR and quantification of IAPV was performed by absolute quantification using standard curve method as previously described.
# Bees were immobilized on ice, then injected with PBS alone or containing IAPV and returned to the incubator. […] Quantification of IAPV mRNA among whole bees and excised insect dorsal vessels was performed by qRT-PCR as detailed below.
# [8] = tested on: Flock House virus (FHV); design: method as in PMID 28819165; conditions: cited from earlier work
# [9] = tested on: bee-relevant viruses; assay: Field colony study, bee-relevant viruses overall; assay type: in vivo, Apis mellifera
# Procedure: (§3) Nucleus colonies of bees were established as previously described and relocated to a geographically isolated apiary and were grown to full-size colonies and equalized based on population prior to initiation of the study. The bees were maintained in eight-frame Langstroth equipment and kept as single deeps with a medium super with undrawn foundation. […] DWV inoculum was prepared by injecting filter-sterilized homogenate from a DWV-positive symptomatic bee into white-eyed honey bee pupae. 72-h later, an aliquot of pupae was screened for preliminary confirmation of DWV infection and found to contain between 5E9 and 8E9 viral copies of DWV-A per individual. Remaining pupae were homogenized in ice-cold PBS, with aliquots retained for qRT-PCR screening of DWV, as well as additional viruses relevant to bee health. Homogenate solutions were diluted in 1:1 sucrose and placed in calibrated spray bottles. A treatment and sampling schedule was constructed based on the 21-day egg-to-adult life history of worker bees (Additional file 1: Fig. S1). Both pinacidil and virus solutions were prepared fresh daily. […] A quantity of 15 fully formed adult stage bees were removed from the capped cells and placed into 15 mL conical vials. All samples were stored on dry ice during field collection, then transferred to − 80 °C until virus quantification. Titers of DWV-A, DWV-B, BQCV, IAPV, LSV-1 and LSV-2 were quantified by qRT-PCR using primer sequences described in our previous publications.
# (§4) Samples were removed from − 80 °C storage and placed in a nuclease-free chilled bead bath (~ 4 °C) to gently thaw. […] RNA concentrations were then quantified for each sample using the NanoDrop 1-C® instrument. […] Library construction was performed using the Quantitect Reverse Transcription kit according to manufacturer instructions (Qiagen, N.V.). Template cDNA was then quantified by NanoDrop 1-C® and standardized to 500 ng/uL by addition of nuclease-free H2O.
# (§5) To accurately quantify virus infection, it was necessary to first construct a standard curve for each target virus. […]
# [10] = tested on: IAPV; assay: IAPV mRNA titer in excised dorsal vessels by qRT-PCR; assay type: in vivo, Israeli acute paralysis virus; conditions: pinacidil 24 h prior to IAPV inoculation; vessels excised 24 h post-inoculation
# Procedure: Groups of 30 age-matched bees were fed 1:1 sucrose diet alone or containing KATP modulators or 0.5 mg/mL paraquat for 24 h. Bees were immobilized on ice, then injected with PBS alone or containing IAPV and returned to the incubator. Mortality assessments and sampling of survivors were conducted at 24-h intervals. Quantification of IAPV mRNA among whole bees and excised insect dorsal vessels was performed by qRT-PCR as detailed below.
# as §4
# To accurately quantify virus infection, it was necessary to first construct a standard curve for each target virus. […] Single-stranded DNA concentration was quantified for each cDNA library with the NanoDrop 1-C® instrument (Thermofisher Scientific) and the number of amplicon copies per μL of solution was determined using online calculators available at SciencePrimer.com. […]
# [11] = tested on: Black queen cell virus (BQCV); assay: Field colony study, change in virus titer by qRT-PCR: BQCV; assay type: in vivo
# Procedure: as §3, §4, §5
# [12] = tested on: DWV-A; assay: Field colony study, change in virus titer by qRT-PCR: DWV-A; assay type: in vivo, Deformed Wing virus
# Procedure: as §3, §4, §5
# [13] = tested on: LSV-2; assay: Field colony study, change in virus titer by qRT-PCR: LSV-2; assay type: in vivo, Lake Sinai virus; conditions: emerging brood, 2 mM pinacidil, colony level
# Procedure: as §3, with “individual.” for “individual. Remaining pupae were homogenized in ice-cold PBS, with aliquots retained for qRT-PCR screening of DWV, as well as additional viruses relevant to bee health. Homogenate solutions were diluted in 1:1 sucrose and placed in calibrated spray bottles. A treatment and sampling schedule was constructed based on the 21-day egg-to-adult life history of worker bees (Additional file 1: Fig. S1). Both pinacidil and virus solutions were prepared fresh daily.”
# as §4, with “Template cDNA was then quantified by NanoDrop 1-C® and standardized to 500 ng/uL by addition of nuclease-free H2O.” left out
# [14] = tested on: bee dorsal vessel; design: method as in PMID 28412203; conditions: cited from earlier work
# [15] = tested on: DWV-B; assay: Field colony study, change in virus titer by qRT-PCR: DWV-B; assay type: in vivo, Deformed Wing virus
# Procedure: as §3, §4, §5
# [16] = emerging brood, 2 mM pinacidil, colony level
compound,measurement,setting,value
"C[n+]1ccc(-c2cc[n+](C)cc2)cc1 [paraquat, Paraquat dichloride hydrate]",Mortality,"[1]; paraquat 1 and 2 mg/mL, 48 h post-exposure",ca. 50%
same,Mortality,"[1]; paraquat 1 and 2 mg/mL, 72 h post-exposure",ca. 100%
same,Mortality,"[1]; paraquat, 48 h post-exposure",ca. 20%
same,Mortality,"[1]; paraquat, 72 h post-exposure",~58%
same,POX activity,[2]; 72 h post-exposure,significantly reduced
same,Survivorship difference between low and high mite groups,[3]; 1 and 2 mg/mL paraquat,no statistical differences
same,LT50 (95% CI),"[3]; High mites, paraquat 0.1 mg/mL",169 (142–177) Ba Hours
same,LT50 (95% CI),"[3]; High mites, paraquat 0.5 mg/mL",99 (71–136) Bb Hours
same,LT50 (95% CI),"[3]; High mites, paraquat 1 mg/mL",52 (22–84) Ac Hours
same,LT50 (95% CI),"[3]; High mites, paraquat 2 mg/mL",47 (38–63) Ac Hours
same,LT50 (95% CI),"[3]; Low mites, paraquat 0.1 mg/mL",82 (51–99) Aa Hours
same,LT50 (95% CI),"[3]; Low mites, paraquat 0.5 mg/mL",66 (52–80) Ab Hours
same,LT50 (95% CI),"[3]; Low mites, paraquat 1 mg/mL",54 (38–70) Ab Hours
same,LT50 (95% CI),"[3]; Low mites, paraquat 2 mg/mL",49 (42–56) Ab Hours
same,Survivorship of bees from high versus low mite-infested colonies,"[3]; paraquat 0.1 mg/mL, 96- to 168-h post treatment",significantly increased
same,Mortality in high mite versus low mite colonies,"[3]; paraquat 0.5 mg/mL, 72- and 96-h post treatment",significant (P < 0.05) reduction of mortality
same,Decrease in GOX compared to pinacidil-treated bees,[4]; in vivo,3.3 fold
same,Decrease in GOX compared to untreated bees,[4]; in vivo,11 fold
same,LT50,"[5]; 0.5 mg/mL paraquat alone, injection experiment",ca. 75 h
same,LT50,"[5]; oral, paraquat exposure alone",ca. 68 h
same,Reduction of total antioxidant concentrations compared to untreated,[6]; 24 h,1.3 fold
same,Reduction of total antioxidant concentrations compared to control treatment,[6]; 48 h,1.4 fold
same,Survivorship after IAPV inoculation compared to IAPV alone,[7],increased survivorship
same,Mortality of IAPV + paraquat versus untreated control,"[7]; 0.5 mg/mL paraquat, 24- and 48-h post-inoculation",not significantly different
same,Mortality of paraquat + IAPV versus untreated and IAPV-only bees,"[7]; 0.5 mg/mL paraquat, 72 h post-inoculation","significantly (P < 0.05) greater than untreated bees, but significantly less than IAPV-only treated bees"
CC(N/C(=N\C#N)Nc1ccncc1)C(C)(C)C (stereo not shown) [pinacidil],POX activity,[2]; 24- and 72-h exposure,no statistical differences
same,Effect against FHV infection of bees,[8],protective effect
same,Reduction of titers of bee-relevant viruses,[9]; colonies treated with pinacidil in the field,up to 75 fold
same,Viral replication in nurse bees,[9]; field study,did not reduce viral replication
same,Viral replication in emerging bees,"[9]; field study, mature colonies",near elimination
same,Reduction in IAPV mRNA titer in the dorsal vessel versus IAPV-inoculated bees,[10],17.5 fold
same,Increase in GOX activity compared to untreated bees,[4]; 24-h exposure,3 fold
same,Increase in GOX activity compared to untreated bees,[4]; 72-h exposure,2.3 fold
same,Change in BQCV titer versus untreated colonies,"[11]; emerging brood, 2 mM pinacidil",not significantly different
same,Reduction of BQCV replication compared to virus only,[11]; [16],3.8 fold
same,BQCV replication compared to virus only inoculated colonies,[11]; nurse/forager bees,did not reduce viral replication
same,Change of DWV-A titer versus uninoculated colonies,"[12]; emerging brood, 2 mM pinacidil",not significantly different
same,Reduction of change in DWV-A titer compared to virus only inoculated colonies,[12]; [16],eight
same,"DWV-A titers, virus only versus pinacidil + virus",[12]; nurse/forager bees,not significantly different
same,Reduction of LSV-2 replication compared to virus inoculation-only colonies,[13],approximately fivefold
same,Antioxidant levels compared to untreated individuals,[6]; 24 h post-treatment,did not reduce
same,Reduction of total antioxidant concentrations,[6]; 72 h,1.5 fold
same,Dorsal vessel contraction rates,[14],increases
same,Mortality of pinacidil + IAPV versus control treatment,"[7]; 24-, 72-, or 96-h post-inoculation",No significant difference
same,Reduction in mortality compared to control bees,"[7]; pinacidil + IAPV, 48 and 120 h",25%
same,Change of DWV-B titer versus uninoculated colonies,"[15]; emerging brood, 2 mM pinacidil",not significantly different
same,Reduction of change in DWV-B titer compared to virus only inoculated colonies,[15]; [16],sixfold
same,"DWV-B titers, virus only versus pinacidil + virus",[15]; nurse/forager bees,not significantly different
CCCCNC(=O)NS(=O)(=O)c1ccc(C)cc1 [tolbutamide],Effect on paraquat-induced toxicity,"[5]; pre-exposure to modulator, 120-h feeding period",did not alter

# Source: publication PMC10286336, “Potassium ion channels as a molecular target to reduce virus infection and mortality of honey bee colonies” (Virology Journal, 2023)
